Results reported in paper PMC7272640, “Molecular docking, synthesis and biological evaluation of Vascular Endothelial Growth Factor (VEGF) B based peptide as antiangiogenic agent targeting the second domain of the Vascular Endothelial Growth Factor Receptor 1 (VEGFR1D2) for anticancer application” (Signal Transduction and Targeted Therapy, 2020).
Where a SMILES comes first, the peptide text is derived from it.

Assays:
VEGFR1D2 = assay: Microscale thermophoresis (MST) binding of VGB3 to VEGFR1D2
Procedure: Previously, a tight association between VEGFR1 D2 and VEGF has also been reported (113pM).[4]
The binding affinity of peptide to its cognate receptor was measured by Microscale thermophoresis (MST) on a Nanotemper Monolith NT.115 instrument (Nanotemper Technologies GmbH). Purified VEGFR1D2 was freshly labeled with the Monolith His-Tag RED-tris-NTA labeling dye according to the supplied protocol (Nanotemper Technologies, GmbH). The labeled protein was concentrated using a PES centrifugation filter (3 kDa cutoff; VWR). Measurements were done in MST buffer (50 mM Tris, 250 mM NaCl, pH=7) in standard capillaries (K002; Nanotemper Technologies GmbH). The final concentrations of either labeled protein in the assay were 25 nM. The ligands (VGB3) was titrated in 1:1 dilutions following manufacturer’s recommendations and starting from 0.25 mM. All binding reactions were incubated for 10 min at room temperature followed by centrifugation at 20,000 g before loading into capillaries. All measurements were performed in triplicate using automatically assigned 20% LED and 60% MST power; Laser On-time was 30 sec and Laser Off time was 5 sec.

HUVEC = assay type: cell-based, human
Procedure: 2× 10^3 HUVEC and 4T1 cell-line were cultured in DMEM medium supplemented with 10% FBS at 37 °C with 5% CO2 in 96-well plate. After 24 h, The cells were incubated in the media supplemented with 2% FBS, different concentrations (0, 0.015, 0.03, 0.061 μM) of VGB3 in the presence of (0.03 μg.ml^-1) VEGF-A (Sigma, St. Louis, MO) for 24 and 48 respectively. Then, cell proliferation was quantified by 3-(4,5–dimethylthiazol-2-yl)-2 ,5-diphenyl tetrazolium bromide (MTT) (Sigma, St. Louis, MO) solution (5 mg/mL) in PBS (pH 7.4) was added to each well and the plates were incubated in the dark at 37 °C for 4 h. Then the insoluble purple formazan product was dissolved by dimethyl sulfoxide (DMSO). Absorbance was measured at 570 nm using an ELISA plate reader. The assay was performed in triplicate.

[1] = test system: human extracellular domains (ECD) of VEGFR1D2; assay: ELISA-based displacement assay (VEGF-A/VEGFR-1 interaction); assay type: binding; conditions: at 100 μM VGB3; btVEGF165 100 pM; plate coated with VEGFR1D2 ECD 20 ng/well, 5 nM; PBS; peptide 45 min at 37 °C then 2 h with btVEGF-A165; chemiluminescence; triplicate wells
Procedure: A white flat-bottom high-binding 96-well plate (COSTAR 3922) was coated with human extracellular domains (ECD) of VEGFR1D2 (R&D Systems, Abingdon, UK) in PBS (20 ng/well, 5 nM) overnight at 4 °C. The plate was washed twice with 200 μL of wash buffer (PBS containing 0.1% (v/v) Tween 20) and treated with 200 μL of blocking buffer (PBS containing 3% (w/v) BSA) at 37 °C for 2 h, followed by two washes with wash buffer. Volumes of 50 μL of peptide VGB3 solution at twice the desired final concentration in PBS were added in triplicate wells and the plate was kept at 37 °C for 45 min. A solution of btVEGF-A165 (R & D Systems, Abingdon, UK) at twice the desired final concentration (100 pM) in 50 μL PBS was added. After 2 h incubation, the plate was washed two times with wash buffer. […] Volumes of 100 μL of Supersignal West Pico Chemiluminescent Substrate (Pierce, Rockford, IL, USA) were finally added and the chemiluminescence was quantified with a TECAN spectrophotometer plate-reader. The percentages of displacement were calculated by the following formula: 100×[1 – (S − NS)/(MS – NS)] where S is the signal measured, NS is the nonspecific binding signal defined as the signal measured in the absence of coated receptor on the microplate, and MS is the maximum binding signal obtained with btVEGF-A165 without the peptide VGB3.

4T1 tumor tissues = assay: Immunohistochemistry / TUNEL of excised 4T1 tumors; assay type: in vivo, Female BALB/c mice; conditions: VGB3 0.2 mg/kg vs PBS, n = 6
Procedure: Female BALB/c mice (5–7 weeks) were purchased from the Laboratory Animal Center of the Iran Pasteur Institute and maintained under standardized environmental conditions: 12 h light-dark phases, with free access to food and water. For treatment with VGB3, Tumor cells (4T1; 1×10^6 cells/500 μl or 1×10^5 cells/50 μl) were injected subcutaneously into the right flanks of mice (n=3–5). To generate the metastatic model, 4T1 tumor models were sterilized, excised from the breast cancer-bearing BALB/c mice, cut into pieces of <0.3 cm3, and subcutaneously implanted into the animals' right flanks under ketamine (100 mg/kg, i.p.) and xylazine (10 mg/kg, i.p.) anesthesia. Animals carrying tumors of size ~100mm3 were randomized to 6 mice/group (n=6). The treatment groups received 0.02, 0.1, 0.2 or 0.5 mg/kg of VGB3 on alternate days and the control group received PBS i.v. into the mice for 19 days from day 13. The tumor volume was measured every 5 days by a digital Vernier caliper (Mitutoyo, Japan), using the following formula: v=a^2×b×0.52 (where a is the shortest and b is the longest diameter). All studies were performed under the guidelines and with the approval of the Institutional Animal Care and Use Committee (IACUC) of Tehran University of Medical Sciences.
Excised tumor tissues for immunohistochemical (IHC) analysis were fixed in formalin (4%), embedded in paraffin, sectioned, and stained with hematoxylin-eosin (H&E). IHC was followed by heat-induced epitope retrieval in a buffer at pH 9.0. IHC staining for CD31 and CD34 (to assign MVD), Ki67 (to determine the percentage of Ki67-positive cells), and P53 and Bcl-2 (to determine the fraction of apoptotic cells relative to total cells) was performed on formalin-fixed paraffin-embedded sections. Staining for cell death with TUNEL (terminal deoxynucleotidyl transferase nick-end labeling)) was performed, followed by enzymatic development in diaminobenzidine (DAB) (Invitrogen, Carlsbad, California, USA) detection and counter-staining in hematoxylin. Images were acquired by microscopy (Olympus BX-51, Japan). Numbers of positive cells were determined by analyzing five random tissue samples under scale bars 100 and 20 μm, with quantification using ImageJ.

Kd (VEGFR1D2; MST, Monolith NT.115, His-Tag RED-tris-NTA labelled VEGFR1D2 25 nM, VGB3 titrated in 1:1 dilutions from 0.25 mM, 50 mM Tris, 250 mM NaCl, pH=7, 10 min at room temperature, triplicate, read-out: dissociation constant (Kd)): 1960 ± 690 nM
binding constant fold lower than Kd of VEGFA to entire extracellular portion of VEGFR1 (VEGFR1D2; VGB3 Kd 1.96 μM vs VEGFA Kd ~50 nM): 40 fold
displacement of btVEGF165 [1]: up to 63%
Compound: CC(C)C[C@@H]1NC(=O)CNC(=O)[C@H](CC(=O)O)NC(=O)[C@H](CC(=O)O)NC(=O)[C@@H]2CCCN2C(=O)[C@@H]2CCCN2C(=O)[C@H](CCCNC(=N)N)NC(=O)[C@@H](NC(=O)[C@@H](N)CCC(=O)O)CSSC[C@@H](C(=O)O)NC1=O [VGB3] (HELM PEPTIDE1{E.C.R.P.P.D.D.G.L.C}$PEPTIDE1,PEPTIDE1,2:R3-10:R3$$$V2.0)
IC50 (HUVEC; 48 h): 30 nM
inhibition of endothelial cell proliferation compared with other reported VEGF-B based peptides (HUVEC; comparison with refs 2,4,5): more effectively inhibited endothelial cell proliferation
inhibition of endothelial cell proliferation compared with clinically used drugs such as Bevacizumab (HUVEC; endothelial cell culture conditions, comparison with refs 2,4,5): more potent
Bcl-2 expression (4T1 tumor tissues; IHC): decreased
CD31 expression (4T1 tumor tissues; IHC): decreased
CD34 expression (4T1 tumor tissues; IHC): decreased
Ki67 expression (4T1 tumor tissues; IHC): decreased
p53 expression (4T1 tumor tissues; IHC): increased
TUNEL staining (4T1 tumor tissues): increased
